For one assay, the system named is AP-1. The conditions noted are these: without activating transcription of retinoic acid response element; Fanjul et al. 1994; cited from earlier work.
For a further assay, the system named is Vldlr^−/− mice. Description: Neovascularization analysis (lesion number and size) in Vldlr^−/− retina whole mounts. The assay is classed as in vivo, mouse. Here is the method:
(§1) All animal studies were performed according to protocols approved by the Institutional Animal Care and Use Committee at the Boston Children's Hospital. Vldlr^+/− (heterozygous) mice from Jackson Laboratory (Stock #002529) were bred to generate homozygous and wild type littermates. SR11302 (TOCRIS, Cat. 2476) was dissolved in corn oil. Vldlr^−/− pups were orally gavaged with SR11302 or corn oil as control at a dose of 1 mg/kg body weight daily from P5 to P15. P16 retinas were collected for PCR and neovascularization analysis.
Vldlr^−/− and wild type retina whole mounts were stained with isolectin IB4 and imaged with AxioObserver Z1 microscope (Zeiss) with a monochrome digital camera (AxioCam MRm; Zeiss) focusing on the terminal end of lesions on the RPE layer (usually at P16), and individual images were merged to create one retinal image using the automated merge function (mosaiX; Zeiss) in the software (AxioVision 4.6.3.0; Zeiss). Image J was used for quantification of subretinal neovascularization lesion number and areas in Vldlr^−/− retinas (National Institutes of Health, imagej.nih.gov/ij/) with designed plugins adapted from the method used to measure retinal neovascularization (SWIFT_NV) in the OIR model (Stahl, A. et al., Angiogenesis 12, 297-301 (2009)) which use a user-designated threshold to mark lesion structures that clearly stand out from background fluorescence of normal vessels, and can automatically remove small artifacts by selecting objects with a minimum size of 100 pixels. Other larger artifacts such as occasional cellular debris or retinal periphery with hyperfluorescence can be manually excluded from quantification. Lesion numbers and areas were quantified with researchers masked to the identity of samples.
At P16, mice were anesthetized, the eyes were enucleated and fixed in 4% paraformaldehyde followed by dissection and staining of the retinas with fluoresceinated isolectin IB4 (Invitrogen) to visualize subretinal neovascularization in whole mounted retinas. 3D reconstructed images were taken with confocal microscopy (Leica TCS SP2 AOBS) and z-stacks were 3D reconstructed using Volocity software (Perkin Elmer).
Subretinal injection into P0 neonate eyes was performed as previously described (Matsuda, T., et al., Proc. Nat. Acad. Sci. USA 101, 16-22 (2004), and Wang, S., et al., Developmental cell 30, 513-527 (2014)) under a dissection microscope. P0 Vldlr^−/− or wild type pups were anesthetized on ice for several minutes. The eyelid was prepped with Betadine, followed by water, then 70% ethanol using cotton swabs. A blade was used to gently cut open the eyelid. The injection needle was inserted into the eyeball through the incision until slight resistance was felt. Approximately 0.5 μl solution containing siRNA/siControl or AAV2/Control (10^12-10^13 gc/ml) was introduced into the subretinal space using a pulled angled glass pipette controlled by a FemtoJet (Eppendorf). The left eyes were uninjected for within-animal controls. Curved forceps were used to slowly close the eyelid. Mice were placed on a circulating water blanket for warmth. The retinas were collected at P12 for PCR assay and P16 for whole mount analysis.

Assay [1] deals with c-fos and its target genes (Mmp10, Il6, IlIb and Tnf). Description: Quantitative RT-PCR of retinal mRNA. The assay is classed as in vivo, mouse. The conditions noted are these: oral gavage 1 mg/kg daily P5 to P15; Vldlr^−/− retinas. Here is the method: as §1
Total RNA was extracted from mouse retinas using RNeasy kit (Qiagen) and reverse-transcribed with SuperScript® III Reverse Transcriptase (Thermo Fisher) to generate cDNA. Quantitative PCR was performed using a 7300 system (Applied Biosystems) with KAPA SYBR FAST qPCR Kits (Kapa Biosystems) using Rhodopsin, Pecam, Vldlr, CD68, CD11b, CD45, c-Fos, Il6, Il11b, Tnf, mmp10, Socs3, uPA, c-Jun, VEGF120, VEGF164, VEGF188 primers.
Subretinal injection into P0 neonate eyes was performed as previously described (Matsuda, T., et al., Proc. Nat. Acad. Sci. USA 101, 16-22 (2004), and Wang, S., et al., Developmental cell 30, 513-527 (2014)) under a dissection microscope. P0 Vldlr^−/− or wild type pups were anesthetized on ice for several minutes. The eyelid was prepped with Betadine, followed by water, then 70% ethanol using cotton swabs. […]

Setting [2] is: oral gavage 1 mg/kg daily P5 to P15, Vldlr^−/− mice.
[3] abbreviates: oral gavage, Vldlr^−/− retinas vs controls.

Turning to `CC1=C(/C=C/C(=C/C=C/C(C)=C/C(=O)O)c2ccc(C)cc2)C(C)(C)CCC1` [SR11302, (E,E,Z,E)-3-Methyl-7-(4-methylphenyl)-9-(2,6,6-trimethyl-1-cyclohexen-1-yl)-2,4,6,8-nonatetraenoic acid], in the assay with AP-1, the AP-1 activity entry was “specifically inhibits”. In the assay with Vldlr^−/− mice (setting [2]), the lesion size decreased came out at 40% and the “total lesion number reduced” value is reported as 48%. Moreover, in the assay on Vldlr^−/− mice (setting [3]), the “neovascularization (in words)” value is “inhibited”, the “total lesion number (in words)” value is “reduced” and the “total lesion size (in words)” value is listed as “reduced”. Also, in assay [1], the “c-FOS target genes (Il6, IlIb and Tnf) mRNA” value is “reduced”; the c-fos expression itself entry is listed as “without influencing”.

(Values after patent US20190352638A1, “THERAPEUTIC MODULATION OF C-FOS IN THE EYE” (Children's Medical Center Corporation, priority 2016, published 2019).)
